What was measured:
[1] = Phase 1 extension study of higher strength capsule (DP2A): adverse events; type: in vivo; settings: q 12 h dosing (N = 11); AE possibly related to BBI608
Description: However, with the higher strength capsules, we observed worsening gastrointestinal adverse effects including nausea, vomiting, and diarrhea in patients.
Additional studies were run using an oral formulation of the Compound of the Invention, specifically a higher strength capsule formulation (DP2A). As described herein, the Compound of the Invention blocks cancer stem cell (CSC) self-renewal and induces cell death in CSC as well as non-stem cancer cells by inhibiting Stat3, β-catenin, and Nanog pathways, and has shown potent anti-tumor and anti-metastatic activities pre-clinically. […] The studies described herein were designed as a phase 1 extension study to evaluate a formulation designed for pivotal trials to determine pharmacokinetics (PK) in patients with advanced cancer.
On Day 1, patients received a single 500 mg dose of an oral administration formulation of the Compound of the Invention (DP1). On Day 4 and Day 8, a higher strength capsule designed for pivotal trials (DP2A) was given with fasting then fed conditions. DP2A was then administered daily until disease progression or unacceptable toxicity. Endpoints were safety, PK and preliminary anticancer activity.

[2] = Phase I dose escalation trial: pharmacokinetic profile; type: in vivo, human
[3] = human, plasma, oral, 20 mg, Total Daily Dose 20 (mg), qd, patient plasma

Compound: CC(=O)c1cc2c(o1)C(=O)c1ccccc1C2=O [Compound 1, 2-acetylnaphtho[2,3-b]furan-4,9-dione]
- Abdominal cramps/pain, Grade 1 or 2, % [1]: 45.5%
- Abdominal cramps/pain, Grade 3, # Subjects [1]: 0
- Abdominal cramps/pain, Grade 3, % [1]: 0.0%
- Anorexia, Grade 1 or 2, # Subjects [1]: 1
- Anorexia, Grade 1 or 2, % [1]: 9.1%
- Anorexia, Grade 3, # Subjects [1]: 0
- Anorexia, Grade 3, % [1]: 0.0%
- Bloated abdomen, Grade 1 or 2, # Subjects [1]: 0
- Bloated abdomen, Grade 1 or 2, % [1]: 0.0%
- Bloated abdomen, Grade 3, # Subjects [1]: 0
- Bloated abdomen, Grade 3, % [1]: 0.0%
- Dehydration, Grade 1 or 2, # Subjects [1]: 0
- Dehydration, Grade 1 or 2, % [1]: 0.0%
- Dehydration, Grade 3, # Subjects [1]: 0
- Dehydration, Grade 3, % [1]: 0.0%
- Depression, Grade 1 or 2, # Subjects [1]: 1
- Depression, Grade 1 or 2, % [1]: 9.1%
- Depression, Grade 3, # Subjects [1]: 0
- Depression, Grade 3, % [1]: 0.0%
- Diarrhea, Grade 1 or 2, # Subjects [1]: 7
- Diarrhea, Grade 1 or 2, % [1]: 63.6%
- Diarrhea, Grade 3, # Subjects [1]: 0
- Diarrhea, Grade 3, % [1]: 0.0%
- Dysgusia, Grade 1 or 2, # Subjects [1]: 0
- Dysgusia, Grade 1 or 2, % [1]: 0.0%
- Dysgusia, Grade 3, # Subjects [1]: 0
- Dysgusia, Grade 3, % [1]: 0.0%
- Fatigue/weakness, Grade 1 or 2, # Subjects [1]: 4
- Fatigue/weakness, Grade 1 or 2, % [1]: 36.4%
- Fatigue/weakness, Grade 3, # Subjects [1]: 1
- Fatigue/weakness, Grade 3, % [1]: 9.1%
- Flatulence, Grade 1 or 2, # Subjects [1]: 2
- Flatulence, Grade 1 or 2, % [1]: 18.2%
- Flatulence, Grade 3, # Subjects [1]: 0
- Flatulence, Grade 3, % [1]: 0.0%
- Nausea, Grade 1 or 2, # Subjects [1]: 2
- Nausea, Grade 1 or 2, % [1]: 18.2%
- Nausea, Grade 3, # Subjects [1]: 0
- Nausea, Grade 3, % [1]: 0.0%
- Rectal/Anal Burning, Grade 1 or 2, # Subjects [1]: 1
- Rectal/Anal Burning, Grade 1 or 2, % [1]: 9.1%
- Rectal/Anal Burning, Grade 3, # Subjects [1]: 0
- Rectal/Anal Burning, Grade 3, % [1]: 0.0%
- Reflux (also heartburn), Grade 1 or 2, # Subjects [1]: 0
- Reflux (also heartburn), Grade 1 or 2, % [1]: 0.0%
- Reflux (also heartburn), Grade 3, # Subjects [1]: 0
- Reflux (also heartburn), Grade 3, % [1]: 0.0%
- Urine Color Change, Grade 1 or 2, # Subjects [1]: 0
- Urine Color Change, Grade 1 or 2, % [1]: 0.0%
- Urine Color Change, Grade 3, # Subjects [1]: 0
- Urine Color Change, Grade 3, % [1]: 0.0%
- Vomiting, Grade 1 or 2, # Subjects [1]: 1
- Vomiting, Grade 1 or 2, % [1]: 9.1%
- Vomiting, Grade 3, # Subjects [1]: 0
- Vomiting, Grade 3, % [1]: 0.0%
- Weight loss, Grade 1 or 2, # Subjects [1]: 0
- Weight loss, Grade 1 or 2, % [1]: 0.0%
- Weight loss, Grade 3, # Subjects [1]: 0
- Weight loss, Grade 3, % [1]: 0.0%
- Xerostomia, Grade 1 or 2, # Subjects [1]: 2
- Xerostomia, Grade 1 or 2, % [1]: 18.2%
- Xerostomia, Grade 3, # Subjects [1]: 0
- Xerostomia, Grade 3, % [1]: 0.0%
- hypophosphatemia, Grade 1 or 2, # Subjects [1]: 0
- hypophosphatemia, Grade 1 or 2, % [1]: 0.0%
- hypophosphatemia, Grade 3, # Subjects [1]: 0
- hypophosphatemia, Grade 3, % [1]: 0.0%
- clearance from the blood ([2]; 20 mg QD, humans): rapidly cleared from the blood
- concentration of the compound in urine of the patient ([2]; 20 mg daily administration): surprisingly high concentration
- AUC [2, 3]: 2.7 µM·h
- Cmax [2, 3]: 490 nM
- AUC ([2]; human, plasma, oral, 40 mg, Total Daily Dose 40 (mg), qd, patient plasma): 3.62 µM·h
- AUC ([2]; human, plasma, oral, 80 mg, Total Daily Dose 80 (mg), qd, patient plasma): 13.3 µM·h

Source: US10543189B2, “2-acetylnaphtho[2,3-b]furan -4,9-dione for use on treating cancer” (Boston Biomedical, Inc., priority 2013, dated 2020)
